Values quoted from earlier work in patent US20110064711A1, “COMPOSITIONS CONTAINING COENZYME Q-10 AND AN ANTIOXIDANT” (priority 2009, published 2011).

Conditions: exposure to ambient air; general statement, time not given

SMILES: COc1c(O)c(C)c(C/C=C(\C)CC/C=C(\C)CC/C=C(\C)CC/C=C(\C)CC/C=C(\C)CC/C=C(\C)CC/C=C(\C)CC/C=C(\C)CC/C=C(\C)CCC=C(C)C)c(O)c1OC [Commercial reduced CoQ10 powder]
- reduced form of CoQ10 on a weight basis after exposure to air: below 20%
